Assay results reported in patent US4372947A, “Antibiotic saframycin S and process for producing the same” (Arai; Tadashi, priority 1980, dated 1983).
Converted amounts (≈) assume the structure as drawn. “Also recorded” adds a separate entry of the source. Where two headings read alike, the source gives them in different places.

What was measured:
[1] = tested on: Staphylococcus aureus 209P; test: Antimicrobial spectrum (MIC); format: cell-based; settings: 1% glucose nutrient agar, 37° C., 24 or 48 hours
[2] = tested on: Staphylococcus aureus Smith; test: Antimicrobial spectrum (MIC); format: cell-based; settings: 1% glucose nutrient agar, 37° C., 24 or 48 hours
Staphylococcus albus = test: Antimicrobial spectrum (MIC); format: cell-based; settings: 1% glucose nutrient agar, 37° C., 24 or 48 hours
Staphylococcus citreus = test: Antimicrobial spectrum (MIC); format: cell-based; settings: 1% glucose nutrient agar, 37° C., 24 or 48 hours
Streptococcus faecalis = test: Antimicrobial spectrum (MIC); format: cell-based; settings: 1% glucose nutrient agar, 37° C., 24 or 48 hours
[3] = tested on: Streptococcus pyogenes Cook; test: Antimicrobial spectrum (MIC); format: cell-based; settings: blood agar, 37° C., 24 or 48 hours
[4] = tested on: Streptococcus pyogenes 090R; test: Antimicrobial spectrum (MIC); format: cell-based; settings: blood agar, 37° C., 24 or 48 hours
[5] = tested on: Staphylococcus salivarius; test: Antimicrobial spectrum (MIC); format: cell-based; settings: 1% glucose nutrient agar, 37° C., 24 or 48 hours
Salina lutea = test: Antimicrobial spectrum (MIC); format: cell-based
Bacillus subtilis PCI219 = test: Antimicrobial spectrum (MIC); format: cell-based; settings: 1% glucose nutrient agar, 37° C., 24 or 48 hours
bacillus cereus = test: Antimicrobial spectrum (MIC); format: cell-based; settings: 1% glucose nutrient agar, 37° C., 24 or 48 hours
[6] = tested on: Corynebacterium dephtheriae; test: Antimicrobial spectrum (MIC); format: cell-based
Corynebacterium xerosis = test: Antimicrobial spectrum (MIC); format: cell-based; settings: 1% glucose nutrient agar, 37° C., 24 or 48 hours
Mycobacterium sp. 607 = test: Antimicrobial spectrum (MIC); format: cell-based; settings: 3% glycerol nutrient agar (acid-fast bacteria), 37° C., 24 or 48 hours
Mycobacterium phlei = test: Antimicrobial spectrum (MIC); format: cell-based; settings: 3% glycerol nutrient agar (acid-fast bacteria), 37° C., 24 or 48 hours
Mycobacterium avium = test: Antimicrobial spectrum (MIC); format: cell-based; settings: 3% glycerol nutrient agar (acid-fast bacteria), 37° C., 24 or 48 hours
Nocardia asteroides = test: Antimicrobial spectrum (MIC); format: cell-based; settings: 37° C., 24 or 48 hours
Escherichia coli = test: Antimicrobial spectrum (MIC); format: cell-based; settings: 1% glucose nutrient agar, 37° C., 24 or 48 hours
Salmonella typhimurium = test: Antimicrobial spectrum (MIC); format: cell-based; settings: 1% glucose nutrient agar, 37° C., 24 or 48 hours
[7] = tested on: Shigella dysenteriae Shiga; test: microbe, parasite or virus in culture; format: cell-based
Klebsiella pneumoniae = test: Antimicrobial spectrum (MIC); format: cell-based; settings: 1% glucose nutrient agar, 37° C., 24 or 48 hours
Brucella abortus = test: microbe, parasite or virus in culture; format: cell-based
Serratia marcescens = test: Antimicrobial spectrum (MIC); format: cell-based; settings: 1% glucose nutrient agar, 37° C., 24 or 48 hours
Pseudomonas aeruginosa = test: Antimicrobial spectrum (MIC); format: cell-based; settings: 1% glucose nutrient agar, 37° C., 24 or 48 hours
Aspergillus oryzae = test: Antimicrobial spectrum (MIC); format: cell-based; settings: Sabouraud dextrose agar, 27° C., 48 hours
Text: (§1) Medium and culture condition:

Mucor mucedo = test: Antimicrobial spectrum (MIC); format: cell-based; settings: Sabouraud dextrose agar, 27° C., 48 hours
Text: as §1

Pencillium glaucum = test: Antimicrobial spectrum (MIC); format: cell-based; settings: Sabouraud dextrose agar, 27° C., 48 hours
Text: as §1

Rhodotorula glutinis = test: Antimicrobial spectrum (MIC); format: cell-based; settings: Sabouraud dextrose agar, 27° C., 48 hours
Text: as §1

Saccharomyces cerevisiae = test: Antimicrobial spectrum (MIC); format: cell-based; settings: Sabouraud dextrose agar, 27° C., 48 hours
Text: as §1

[8] = tested on: Trichophyton mentagrophytes; test: Antimicrobial spectrum (MIC); format: cell-based; settings: Sabouraud dextrose agar, 27° C., 48 hours
Text: as §1

male DDY strain mice = test: Acute toxicity LD50 in male DDY strain mice; format: in vivo, mouse; settings: male DDY mice 18-20 g
[9] = tested on: mouse lymphoid leukemia P388; test: Effects on mouse lymphoid leukemia P388 in BDF1 mice; format: in vivo; settings: for survival period of treated group over survival period of control group: i.p., 1×10^6 cells i.p., BDF1 mice; for increase of survival period: treatment 1-10 diseased days, 1×10^6 cells
Text: The effects of saframycin S on mouse lymphoid leukemia P388 were studied with BDF1 mice.

[10] = tested on: gram-positive bacteria and some acidfast bacteria or gram-negative bacteria; test: Antibacterial activity, summary of spectrum; format: cell-based
[11] = Biological activity compared between saframycins
transplantable tumors = test: Activity against transplantable tumors; settings: in vivo
Aspergillus niger = test: Antimicrobial spectrum (MIC); settings: Sabouraud dextrose agar, 27° C., 48 hours
Candida albicans 7N = test: Antimicrobial spectrum (MIC); settings: Sabouraud dextrose agar, 27° C., 48 hours
various microorganisms = test: Growth inhibition of various microorganisms; format: cell-based; settings: at low concentrations
leukemia L1210 = test: Antitumor activity, leukemia L1210; format: in vivo; settings: mouse tumor
leukemia P388 = test: Antitumor activity, leukemia P388; format: in vivo; settings: mouse tumor
melanoma B16 = test: Antitumor activity, melanoma B16; format: in vivo; settings: mouse tumor
Ehrlich's ascites tumor = test: Antitumor activity, Ehrlich's ascites tumor; format: in vivo; settings: mouse tumor
S-180 solid cancer = test: Antitumor activity, S-180 solid cancer; format: in vivo; settings: mouse tumor
gastric cancer of man = test: Growth inhibition of gastric cancer of man heterotransplanted to the nude mouse; format: in vivo
[12] = tested on: DNA of transplantable cancer cells; test: Mechanism of action: reaction with DNA of transplantable cancer cells
[13] = tested on: synthesis of ribosomal RNA and messenger RNA; test: Mechanism of action: synthesis of ribosomal RNA and messenger RNA; settings: transplantable cancer cells
[14] = tested on: RNA synthesis (Escherichia coli RNA polymerase, calf thymus DNA); test: RNA synthesis in in vitro reaction mixture; format: biochemical
tumor = settings: Japanese Patent Lay Open No. 44098/1979; cited from earlier work
[15] = 1% glucose nutrient agar, 37° C., 24 or 48 hours

SMILES: COC1=C(C)C(=O)C2=C(C1=O)[C@@H]1[C@@H]3CC4=C(C(=O)C(OC)=C(C)C4=O)[C@H](CNC(=O)C(C)=O)N3[C@@H](O)[C@H](C2)N1C [Saframycin S]
- MIC [1]: 0.01 µg/mL (≈ 0.0181 µM)
- MIC [2]: 0.001 µg/mL (≈ 0.00181 µM)
- MIC (Staphylococcus albus): 0.001 µg/mL (≈ 0.00181 µM)
- MIC (Staphylococcus citreus): 0.001 µg/mL (≈ 0.00181 µM)
- MIC (Streptococcus faecalis): 1.56 µg/mL (≈ 2.82 µM)
- MIC [3]: 0.05 µg/mL (≈ 0.0903 µM)
- MIC [4]: 0.05 µg/mL (≈ 0.0903 µM)
- MIC [5]: 25.0 µg/mL (≈ 45.2 µM)
- MIC (Salina lutea; [15]): 0.006 µg/mL (≈ 0.0108 µM)
- MIC (Bacillus subtilis PCI219): 0.025 µg/mL (≈ 0.0452 µM)
- MIC (bacillus cereus): 0.4 µg/mL (≈ 0.723 µM)
- MIC [6, 15]: 0.001 µg/mL (≈ 0.00181 µM)
- MIC (Corynebacterium xerosis): 0.001 µg/mL (≈ 0.00181 µM)
- MIC (Mycobacterium sp. 607): 1.56 µg/mL (≈ 2.82 µM)
- MIC (Mycobacterium phlei): 0.8 µg/mL (≈ 1.45 µM)
- MIC (Mycobacterium avium): 50.0 µg/mL (≈ 90.3 µM)
- MIC (Nocardia asteroides): 6.25 µg/mL (≈ 11.3 µM)
- MIC (Escherichia coli): 25.0 µg/mL (≈ 45.2 µM)
- MIC (Salmonella typhimurium): 100 µg/mL (≈ 181 µM)
- MIC [7, 15]: 1.56 µg/mL (≈ 2.82 µM)
- MIC (Klebsiella pneumoniae): 1.56 µg/mL (≈ 2.82 µM)
- MIC (Brucella abortus; blood agar, 37° C., 24 or 48 hours): 0.8 µg/mL (≈ 1.45 µM)
- MIC (Serratia marcescens): 50.0 µg/mL (≈ 90.3 µM)
- MIC (Pseudomonas aeruginosa): 100 µg/mL (≈ 181 µM)
- MIC (Aspergillus oryzae): 100 µg/mL (≈ 181 µM)
- MIC (Mucor mucedo): 100 µg/mL (≈ 181 µM)
- MIC (Pencillium glaucum): 100 µg/mL (≈ 181 µM)
- MIC (Rhodotorula glutinis): 100 µg/mL (≈ 181 µM)
- MIC (Saccharomyces cerevisiae): 50 µg/mL (≈ 90.3 µM)
- MIC [8]: 50 µg/mL (≈ 90.3 µM)
- LD50 (male DDY strain mice; intraperitoneal injection): 2.5 mg/kg
- LD50 (male DDY strain mice; intravenous injection): 0.83 mg/kg
- survival period of treated group over survival period of control group ([9]; 0.5 mg/kg daily for 10 days): 146.2%
- increase of survival period ([9]; 0.5 mg/kg/day): 46.2%
- survival period of treated group over survival period of control group ([9]; 0.75 mg/kg daily for 10 days): 157.7%
- increase of survival period ([9]; 0.75 mg/kg/day): 57.7%
- survival period of treated group over survival period of control group ([9]; 1.0 mg/kg daily for 10 days): 161.5%
- increase of survival period ([9]; 1.0 mg/kg/day): 61.5%
- survival period of treated group over survival period of control group ([9]; 1.5 mg/kg daily for 10 days): 182.7%
- increase of survival period ([9]; 1.5 mg/kg/day): 82.7%
- antibacterial activity [10]: antibacterial activities mainly against gram-positive bacteria; also recorded: antibacterial activity mainly against gram-positive bacteria and some acidfast bacteria or gram-negative bacteria such as Mycobacterium, Shigella dysenteriae Shiga and Brucella
- biological activities relative to saframycin A ([11]; compared with saframycin A): still more powerful biological activities in every point than saframycin A; also recorded: almost equal to that of saframycin A
- activity against transplantable tumors (transplantable tumors): activity against transplantable tumors
- MIC (Aspergillus niger): > 100 µg/mL
- MIC (Candida albicans 7N): > 100 µg/mL

SMILES: COC1=C(C)C(=O)C2=C(C1=O)C1C3CC4=C(C(=O)C(OC)=C(C)C4=O)C(CNC(=O)C(C)=O)N3C(C#N)C(C2)N1C (centres unmarked) [Saframycin A, reference compound]
- MIC ([2]; Staphylococcus aureus, read-out: MIC): 0.025 µg/mL (≈ 0.0444 µM)
- MIC (Staphylococcus albus; Staphylococcus, read-out: MIC): 0.006 µg/mL (≈ 0.0107 µM)
- MIC (Staphylococcus citreus; Staphylococcus, read-out: MIC): 0.006 µg/mL (≈ 0.0107 µM)
- MIC (Streptococcus faecalis; Enterococcus faecalis, read-out: MIC): 1.56 µg/mL (≈ 2.77 µM)
- MIC ([3]; Streptococcus pyogenes, read-out: MIC): 1.56 µg/mL (≈ 2.77 µM)
- MIC ([4]; Streptococcus pyogenes, 090R, read-out: MIC): 3 µg/mL (≈ 5.33 µM)
- MIC (Salina lutea): 0.006 µg/mL (≈ 0.0107 µM)
- MIC (Bacillus subtilis PCI219; Bacillus subtilis, PCI219, read-out: MIC): 0.025 µg/mL (≈ 0.0444 µM)
- MIC (bacillus cereus; Bacillus cereus, read-out: MIC): 0.4 µg/mL (≈ 0.711 µM)
- MIC ([6]; Corynebacterium): 0.001 µg/mL (≈ 0.00178 µM)
- MIC (Corynebacterium xerosis; Corynebacterium xerosis, read-out: MIC): 0.012 µg/mL (≈ 0.0213 µM)
- MIC (Mycobacterium sp. 607; Mycobacterium, SP.607, read-out: MIC): 1.56 µg/mL (≈ 2.77 µM)
- MIC (Mycobacterium phlei; Mycolicibacterium phlei, read-out: MIC): 1.56 µg/mL (≈ 2.77 µM)
- MIC (Mycobacterium avium; Mycobacterium avium, read-out: MIC): 100 µg/mL (≈ 178 µM)
- MIC (Nocardia asteroides; Nocardia asteroides, read-out: MIC): 50 µg/mL (≈ 88.9 µM)
- MIC ([7]; Shigella dysenteriae): 1.56 µg/mL (≈ 2.77 µM)
- MIC (Klebsiella pneumoniae; Klebsiella pneumoniae, read-out: MIC): 1.56 µg/mL (≈ 2.77 µM)
- MIC (Brucella abortus; Brucella abortus): 1.56 µg/mL (≈ 2.77 µM)
- MIC (Pseudomonas aeruginosa; Pseudomonas aeruginosa, read-out: MIC): 100 µg/mL (≈ 178 µM)
- biological activity among saframycins A-E ([11]; among saframycins A-E): highest biological activity
- inhibition of growth of various microorganisms (various microorganisms): effective in inhibiting the growth of various microorganisms at low concentrations
- effect on leukemia L1210 (leukemia L1210): effective
- effect on leukemia P388 (leukemia P388): effective
- effect on melanoma B16 (melanoma B16): effective
- effect on Ehrlich's ascites tumor (Ehrlich's ascites tumor): effective
- effect on S-180 solid cancer (S-180 solid cancer): effective
- inhibition of growth of gastric cancer of man (gastric cancer of man): effective in inhibiting the growth of gastric cancer of man
- reaction with DNA, inhibition of template activity [12]: specifically reacted with DNA of transplantable cancer cells to inhibit their template activity
- synthesis of ribosomal RNA and messenger RNA [13]: prevented synthesis of ribosomal RNA and messenger RNA
- inhibition of RNA synthesis in vitro ([14]; Escherichia coli RNA polymerase, calf thymus DNA, RNA precursor, no reducing agent): did not inhibit RNA synthesis
- inhibition of RNA synthesis in vitro ([14]; with dithiothreitol (DTT) and other reducing agent): RNA synthesis inhibition equivalent to in vivo effect was observed
- antitumor effect (tumor): strong antitumor effect
